Columns and labels:
Kunming mice = assay: Acute toxicity test of mouse; type: in vivo
Description: Mice were administered by i.g. at doses of 5000 mg/kg and 2000 mg/kg. The drugs were dispersed with a 1% aqueous solution of hydroxypropyl methylcellulose (HPMC), and the administration volume was calculated in accordance with 0.2 mL/10 g.

SD rats = assay: Anxiety behavior model of repeatedly administrated rat: Vogel drinking conflict test; type: in vivo; conditions: D18, within 3 minutes
Description: The requirements for test animals, drug formulation and administration were the same as those of the rat chronic mild stress model.
Instruments: Vogel drinking anxiety device for rat and O-maze device for rat were manufactured by Shanghai XinRuan Company. The rat feeding chamber was a home-made white plastic box (60×45×25 cm).
The rats were administrated continuously by i.g. once a day. A novelty-suppressed feeding test, a Vogel drinking conflict test, and an O-maze test were performed on a different day, respectively. Each behavior test was performed at 9:00-12:00, and the administration time was 16:00-17:00. The test process was as follows: D12, novelty-suppressed feeding test (animals were fasted for 48 hours before the test); D18, Vogel drinking conflict test (animals were banned from water for 48 hours before the test); D21, O-maze test.
The Vogel drinking anxiety device for rat connected a drinking tube of a water bottle, an electric grid and a current loop of a controller through the animal body when rat drank water. The controller can automatically record the number of times the animal drank water and can deliver an electric shock to foot sole. The rat was individually placed in the test chamber after 48 hours of water deprivation. When the animal drank 20 times in the test chamber, the controller started timing for 3 minutes, and every 20 times the rat drank, one electric shock to foot sole was delivered (0.35 mA for 2 s). The device automatically recorded the number of times the rat drank water with electric shock within 3 minutes.

[1] = In vitro metabolism study, human liver microsomal incubation system; type: in vitro ADME
Description: TSQ Quantum liquid chromatography-mass spectrometer (LC/MS/MS) from Finnigan Inc, USA, chromatography column: TSKgel Amide-80 column (2.0 mm I.D.×100 mm, 5 μm); mobile phase: acetonitrile-water-formic acid (50:50:0.1); flow rate: 0.2 mL/min; injection volume: 5 μL; column temperature: room temperature. Ionization source is electrospray ionization (ESI) with 4.8 KV of spray voltage; capillary temperature (TEM): 300° C.; sheath gas: N2, flow rate: 10 psi; auxiliary gas: N2, flow rate: 1 psi; collision gas (CID): Ar at a pressure of 1.5 mTorr. The mass spectrometry scanning method was selective reaction monitoring (SRM) and detected by positive ion method. The internal standard was a […] solution of aconitine in acetonitrile, the minimum limit of quantification was 5 ng/mL, and the correlation coefficient was >0.99.
Approximately 10 mg of each sample to be tested was accurately weighed, dissolved in 0.1 mL of DMSO, and serially diluted with purified water to a 10 μM, 1 μM standard stock solution. An ice bath was operated and the incubation system for detection was formulated according to Table 4. NADPH was added to the incubation system to start the reaction, and then 50 μL was immediately added to 150 μL acetonitrile as a zero-time sample and a 1 μM standard curve sample. Another 1 μM standard stock solution was added to the incubation system, and then 50 μL was immediately added to 150 μL acetonitrile as a 0.1 μM standard curve sample. […] Each sample was shaken, and centrifuged at 18000 g for 10 min. The supernatant was taken for LC/MS/MS injection and determination.

[2] = target: human MT1 receptor membrane protein (Homo sapiens (Human), UniProt P48039); assay: MT1 receptor binding test ([3H]-Melotonin competition)
Description: (§1) The receptors included a MT1/MT2 receptor and a 5-HT2C receptor. The test was divided into two parts: prescreening and rescreening. The results of prescreening were expressed as the percentage of binding, and the results of rescreening were expressed as the IC50 value (in M, i.e., mol/L).
(§2) (3) Tris-HCl buffer formulation: 50 mM Tris-HCl Buffer, 1 mM EDTA, 5 mM MgCl2, 0.1% NaN3, and then a certain proportion of PMSF was added to make pH 7.4.
(§3) (4) The example compound to be tested was dissolved in DMSO and formulated as a stock solution of 10^−2 M, and then diluted with distilled water to a concentration gradient of […]. The prescreening of the MT receptor binding test was performed at the concentration of 10^−5 M; the prescreening of the 5-HT2C receptor binding test was performed at the concentrations of 10^−5 and 10^−7 M.
(§4) The statistical analysis was performed using GraphPad Prism 5.0 software. The formula for receptor binding test was: inhibition (%)=[(total CPM of binding−CPM of tube with drug)/(total CPM of binding−non-specific CPM)]×100%, wherein CPM was count of a radioactive intensity.
(§5) 10 μL of receptor membrane protein MT1 or MT2 was added to all the tubes. In non-specific binding tubes, 50 μL of a corresponding unlabeled ligand Ago at a concentration of 10^4 M was added to a final concentration of 10 μM, and pre-reacted for 30 minutes. In test tubes, 30 μL of test drug (MT1: a concentration of 10^4-10^−10 M, MT2: a concentration of […]) was added, respectively; all tubes were added with 40 μL [^3H]-Melotonin, respectively. […] The filter paper was taken out and dried by baking, and then placed in a scintillation bottle. 1 mL of the scintillation liquid was added, and the radioactive intensity was measured by a liquid scintillation counter.

[3] = target: human MT2 receptor membrane protein (Homo sapiens (Human), UniProt P49286); assay: MT2 receptor binding test ([3H]-Melotonin competition)
Description: as §1, §2, §3, §4, §5

CYP1A2 = CYP1A2 (Homo sapiens (Human), UniProt P05177); conditions: cited from earlier work
CYP2C9 = CYP2C9 (Homo sapiens (Human), UniProt P11712); conditions: first-pass effect of the liver; cited from earlier work
[4] = cited from earlier work
[5] = background statement; cited from earlier work
[6] = incubation time 0 min, 1 μM, 1 mg/mL microsome, 37° C.

Chain of human MT2 receptor membrane protein (P49286 whole entry): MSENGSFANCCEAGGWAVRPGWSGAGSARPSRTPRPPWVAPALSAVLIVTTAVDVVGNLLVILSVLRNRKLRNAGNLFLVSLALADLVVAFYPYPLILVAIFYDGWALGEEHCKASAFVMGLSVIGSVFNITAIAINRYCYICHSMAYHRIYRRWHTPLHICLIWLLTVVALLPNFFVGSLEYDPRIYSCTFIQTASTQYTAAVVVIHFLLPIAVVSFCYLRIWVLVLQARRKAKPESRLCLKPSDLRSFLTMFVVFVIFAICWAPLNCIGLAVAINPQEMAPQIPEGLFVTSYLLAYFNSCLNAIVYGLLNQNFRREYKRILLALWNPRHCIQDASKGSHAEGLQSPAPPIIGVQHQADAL
Chain of human MT1 receptor membrane protein (P48039 whole entry): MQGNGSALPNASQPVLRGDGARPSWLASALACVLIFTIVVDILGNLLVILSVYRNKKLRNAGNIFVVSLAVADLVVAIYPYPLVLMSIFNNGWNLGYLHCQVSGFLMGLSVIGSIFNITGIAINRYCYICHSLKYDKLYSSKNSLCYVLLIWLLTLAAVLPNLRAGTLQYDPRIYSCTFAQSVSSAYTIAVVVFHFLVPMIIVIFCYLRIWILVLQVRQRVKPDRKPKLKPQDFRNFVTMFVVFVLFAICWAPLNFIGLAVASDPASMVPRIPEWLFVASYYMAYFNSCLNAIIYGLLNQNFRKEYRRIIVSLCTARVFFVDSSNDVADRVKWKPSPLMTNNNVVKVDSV
Chain of CYP1A2 (P05177 whole entry): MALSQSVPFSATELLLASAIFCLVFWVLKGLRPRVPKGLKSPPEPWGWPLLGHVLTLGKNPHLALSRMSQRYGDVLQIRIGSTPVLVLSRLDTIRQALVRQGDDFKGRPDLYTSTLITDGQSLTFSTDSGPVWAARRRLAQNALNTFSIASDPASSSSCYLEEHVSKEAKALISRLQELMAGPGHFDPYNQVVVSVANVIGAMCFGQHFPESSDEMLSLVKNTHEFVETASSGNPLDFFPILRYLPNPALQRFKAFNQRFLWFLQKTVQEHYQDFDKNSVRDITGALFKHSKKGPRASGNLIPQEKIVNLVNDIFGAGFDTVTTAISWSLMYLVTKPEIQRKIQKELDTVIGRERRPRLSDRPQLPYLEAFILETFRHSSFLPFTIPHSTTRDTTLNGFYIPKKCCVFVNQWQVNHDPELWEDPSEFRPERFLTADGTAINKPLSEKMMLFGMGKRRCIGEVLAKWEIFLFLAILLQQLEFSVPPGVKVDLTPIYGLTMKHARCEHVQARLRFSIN
Chain of CYP2C9 (P11712 whole entry): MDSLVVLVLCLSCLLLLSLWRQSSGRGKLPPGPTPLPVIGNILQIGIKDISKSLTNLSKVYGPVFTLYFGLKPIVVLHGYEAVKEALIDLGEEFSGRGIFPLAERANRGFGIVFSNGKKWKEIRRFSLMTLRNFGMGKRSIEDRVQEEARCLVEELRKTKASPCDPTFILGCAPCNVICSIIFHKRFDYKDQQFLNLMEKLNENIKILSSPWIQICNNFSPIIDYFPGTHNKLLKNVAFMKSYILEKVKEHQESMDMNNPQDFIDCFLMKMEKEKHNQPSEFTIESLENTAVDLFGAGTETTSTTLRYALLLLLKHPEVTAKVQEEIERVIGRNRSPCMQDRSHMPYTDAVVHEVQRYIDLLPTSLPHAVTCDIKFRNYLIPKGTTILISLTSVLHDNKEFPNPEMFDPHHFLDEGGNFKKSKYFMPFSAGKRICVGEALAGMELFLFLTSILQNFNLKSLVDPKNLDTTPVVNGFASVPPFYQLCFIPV

[2H]C([2H])([2H])Oc1cc2c(CCNC(C)=O)cccc2cc1Cl [Example 1, N-(2-(6-chloro-7-deuteromethoxy-naphthalen-1-yl)ethyl)acetamide]
Acute reaction after single administration (Kunming mice; mice, 2000 mg/kg i.g.): the activity of the mice became slightly smaller but there were no obvious adverse reactions | Adverse reactions during 14-day observation (Kunming mice; mice, 2000 mg/kg i.g.): no obvious adverse reactions within 14 days after the administration | Body weight compared with the blank group (Kunming mice; mice, 2000 mg/kg i.g.): no significant difference in body weight compared with the blank group | Acute reaction after single administration (Kunming mice; mice, 5000 mg/kg i.g.): the mice began to fall into a coma 15 minutes after the administration, and within 24 hours the mice all awakened and returned to normal | Adverse reactions during 14-day observation (Kunming mice; mice, 5000 mg/kg i.g.): no obvious adverse reactions within 14 days after the administration | Body weight compared with the blank group (Kunming mice; mice, 5000 mg/kg i.g.): no significant difference in body weight compared with the blank group | Safety compared with control drug (Kunming mice; mouse model, overall): safer than the control drug Agomelatine | Number of times drinking water with electric shock (s) (SD rats; 5 mg/kg i.g. once a day): 76 ± 11 number of licks (count) | Number of times drinking water with electric shock (s) (SD rats; 10 mg/kg i.g. once a day): 159 ± 14 number of licks (count) | Number of times drinking water with electric shock (s) (SD rats; 20 mg/kg i.g. once a day): 172 ± 25 number of licks (count) | Number of times drinking water with electric shock (s) (SD rats; 40 mg/kg i.g. once a day): 213 ± 20 number of licks (count) | Metabolic stability in human liver microsome (comparison) ([1]; compared among examples and controls): highest metabolic stability | Concentration measured at incubation time point [1, 6]: 1001 ± 19 nM | Concentration measured at incubation time point ([1]; incubation time 5 min): 793 ± 108 nM | Concentration measured at incubation time point ([1]; incubation time 15 min): 194 ± 46 nM | Concentration measured at incubation time point ([1]; incubation time 30 min): 110 ± 88 nM | MT1 binding ratio (I %) ([2]; prescreening, 10^−5 M): 84% | IC50 ([2]; rescreening): 0.45 ± 0.26 nM | MT2 binding ratio (I %) ([3]; prescreening, 10^−5 M): 98% | IC50 ([3]; rescreening): 0.72 ± 0.13 nM

COc1ccc2cccc(CCNC(C)=O)c2c1 [Agomelatine, reference compound]
share metabolized by CYP1A2 (CYP1A2): about 90% | share metabolized by CYP2C9 (CYP2C9): about 10% | Acute reaction after single administration (Kunming mice; mice, 2000 mg/kg i.g.): the mice all fell into a coma 15 minutes after the administration | Adverse reactions during 14-day observation (Kunming mice; mice, 2000 mg/kg i.g.): no obvious adverse reactions within 14 days after the administration | Body weight compared with the blank group (Kunming mice; mice, 2000 mg/kg i.g.): the body weight was lighter on the first and second days after the administration with a significant difference | Number of mice that died within 12 hours (Kunming mice; mice, 2000 mg/kg i.g., group of 10): 4 mice | Acute reaction after single administration (Kunming mice; mice, 5000 mg/kg i.g.): the mice all fell into a coma 15 minutes after the administration and died successively after 12 hours | patients with an increase in ALT/AST (three times above the normal upper limit) [4]: more than 1% | Concentration measured at incubation time point [1, 6]: 999 ± 59 nM | Concentration measured at incubation time point ([1]; incubation time 5 min): 539 ± 19 nM | Concentration measured at incubation time point ([1]; incubation time 15 min): 9 ± 5 nM | absolute bioavailability [5]: below 5% | oral absorption [5]: over 80%
